US8148070B2, “Genetic polymorphisms associated with coronary events and drug response, methods of detection and uses thereof” (Celera Corporation, priority 2007, dated 2012)

How the values were obtained:
[1] = system: elderly men and women (ages 70-82); assay: PROSPER trial: pravastatin vs placebo, coronary events in elderly by KIF6 719Arg carrier status; type: in vivo, human; settings: for hazard ratio (coronary events, pravastatin vs placebo) / Hazard ratio: PROSPER; for hazard ratio (coronary events, pravastatin vs placebo): ages 70-82; for event (number of patients) / no event (number of patients): pravastatin arm of PROSPER; for Hazard ratio: pravastatin vs placebo, risk of CHD
Experimental: In this analysis, the KIF6 Trp719Arg polymorphism was analyzed in samples from the “Prospective Study of Pravastatin in the Elderly at Risk” (PROSPER) trial (PROSPER is described further in Shepherd et al., Lancet. 2002 Nov. 23; 360(9346):1623-30). PROSPER was both a secondary and primary trial of elderly men and women (ages 70-82). […] Since an interaction has been observed between KIF6 carrier status and prior vascular events, groups with and without prior vascular events were genotyped separately.
5752 patients were genotyped within the PROSPER trial, and Cox proportional hazards models were used to investigate (1) the risk for coronary events in 719Arg carriers compared with noncarriers in a placebo arm, and (2) the effect of statin therapy according to 719Arg carrier status in a pravastatin arm.
To assess the effect of pravastatin, risk estimates were used to compare the pravastatin arm with the placebo arm in subgroups defined by genotypes.

PROVE-IT patients = assay: PROVE-IT (PROVE IT-TIMI 22) genetic study: high-dose atorvastatin vs standard-dose pravastatin, death or major cardiovascular events by KIF6 719Arg carrier status; type: in vivo, human
Experimental: Patients were followed for 18 to 36 months, with an average follow-up of 24 months.
Of the 1,724 patients who met the criteria listed above, 1344 (78.0%) were male. […] This study was approved by institutional review boards of the Brigham and Women's Hospital and all participating centers.
KIF6 genotypes were determined using allele—specific real-time PCR as previously described. Cox proportional hazard models (Wald tests) were used to assess the effect of atorvastatin-treatment on incident CHD in the KIF6 719Arg carriers and noncarriers. Continuous variables tested were age, baseline LDL-C, and baseline HDL-C levels. Categorical variables tested were smoking (current versus non-current), hypertension, and baseline diabetes. All reported p values are two-sided.

[2] = carrier (minor homozygote + heterozygote)

With CC[C@H](C)C(=O)O[C@H]1C[C@H](O)C=C2C=C[C@H](C)[C@H](CC[C@@H](O)C[C@@H](O)CC(=O)O)[C@H]21 [Pravastatin, pravastatin] the “hazard ratio (coronary events, pravastatin vs placebo)” value ([1]; 719Arg carriers with prior vascular disease) was 0.67, the “hazard ratio (coronary events, pravastatin vs placebo)” value ([1]; noncarriers with prior vascular disease) was 0.92 and the “event (number of patients)” value [1, 2] was 103. The “no event (number of patients)” value [1, 2] was 657, the “event (number of patients)” value ([1]; rs20455 genotype AA) was 80 and the “no event (number of patients)” value ([1]; rs20455 genotype AA) was 456. For the same compound, the “event (number of patients)” value ([1]; rs20455 genotype AG) was 85, the “no event (number of patients)” value ([1]; rs20455 genotype AG) was 501 and the “event (number of patients)” value ([1]; rs20455 genotype GG) was 18. The “no event (number of patients)” value ([1]; rs20455 genotype GG) was 156, the Hazard ratio ([1]; KIF6 719Arg carrier, Model 1 unadjusted) was 0.67 and the Hazard ratio ([1]; KIF6 719Arg carrier, Model 2 adjusted for age, sex and smoking status) was 0.67. It also gave a Hazard ratio ([1]; KIF6 719Arg carrier, Model 3 adjusted for age, sex, smoking status, history of hypertension, LDL, HDL and history of diabetes) of 0.67, a Hazard ratio ([1]; KIF6 rs20455 heterozygote, Model 1 unadjusted) of 0.67 and a Hazard ratio ([1]; KIF6 rs20455 heterozygote, Model 2 adjusted for age, sex and smoking status) of 0.67. It also gave a Hazard ratio ([1]; KIF6 rs20455 heterozygote, Model 3 adjusted for age, sex, smoking status, history of hypertension, LDL, HDL and history of diabetes) of 0.68, a Hazard ratio ([1]; KIF6 rs20455 major homozygote (noncarrier), Model 1 unadjusted) of 0.93 and a Hazard ratio ([1]; KIF6 rs20455 major homozygote (noncarrier), Model 2 adjusted for age, sex and smoking status) of 0.92. For the same compound, the Hazard ratio ([1]; KIF6 rs20455 major homozygote (noncarrier), Model 3 adjusted for age, sex, smoking status, history of hypertension, LDL, HDL and history of diabetes) was 0.92, the Hazard ratio ([1]; KIF6 rs20455 minor homozygote, Model 1 unadjusted) was 0.65 and the Hazard ratio ([1]; KIF6 rs20455 minor homozygote, Model 2 adjusted for age, sex and smoking status) was 0.65. For the same compound, the Hazard ratio ([1]; KIF6 rs20455 minor homozygote, Model 3 adjusted for age, sex, smoking status, history of hypertension, LDL, HDL and history of diabetes) was 0.63, the “On-trial CHD” value (PROVE-IT patients; ArgArg + ArgTrp, totals 509 (atorvastatin), 502 (pravastatin)) was 123 Number of patients and the “On-trial CHD” value (PROVE-IT patients; TrpTrp, totals 359 (atorvastatin), 352 (pravastatin)) was 80 Number of patients.
